Where “and” joins values, the source holds several entries; their conditions need not be identical. Identical values can stand only once.
Columns and labels:
[1] = Crystal, Calculated from knudsen effusion weight loss
[2] = molar enthalpy of vaporization or sublimation; details: 298.15 K; Crystal; drop calorimetry

OC1c2ccccc2Oc2ccccc21 [9H-xanthen-9-ol]
[1]
Details	vapor or sublimation pressure
333.18 K	6.91e-05 kPa and 5.67e-05 kPa and 6.28e-05 kPa
335.14 K	8.54e-05 kPa and 8.17e-05 kPa and 7.79e-05 kPa
337.08 K	0.0001045 kPa and 0.0001126 kPa and 0.0001038 kPa
339.18 K	0.0001355 kPa and 0.0001321 kPa and 0.000152 kPa
341.13 K	0.0001838 kPa and 0.0001813 kPa and 0.0001645 kPa
343.08 K	0.0002256 kPa and 0.0002318 kPa and 0.0002156 kPa
345.08 K	0.0002616 kPa and 0.0002749 kPa and 0.0002595 kPa
347.14 K	0.0003355 kPa and 0.0003321 kPa and 0.0003104 kPa
349.17 K	0.0004364 kPa and 0.0003742 kPa and 0.0003877 kPa
351.07 K	0.0005411 kPa and 0.0005557 kPa and 0.0005348 kPa
353.12 K	0.0006853 kPa and 0.0006411 kPa and 0.0006134 kPa
355.18 K	0.0008786 kPa and 0.0007534 kPa and 0.0007633 kPa

NC(=O)C1c2ccccc2Oc2ccccc21 [9H-xanthene-9-carboxamide]
[1]
Details	vapor or sublimation pressure
399.14 K	0.0001229 kPa and 0.0001189 kPa and 0.000116 kPa
401.14 K	0.000154 kPa and 0.0001484 kPa and 0.000144 kPa
403.16 K	0.0001893 kPa and 0.0001856 kPa and 0.0001767 kPa
405.15 K	0.0002159 kPa and 0.0002174 kPa
407.19 K	0.0002731 kPa and 0.0002662 kPa
409.17 K	0.0003106 kPa and 0.0002981 kPa and 0.0003072 kPa
411.15 K	0.0003968 kPa and 0.0003833 kPa
413.19 K	0.0004758 kPa and 0.0004828 kPa and 0.0004614 kPa
415.15 K	0.0005574 kPa and 0.0005463 kPa
417.17 K	0.000649 kPa and 0.0006492 kPa
419.18 K	0.0007769 kPa and 0.0008205 kPa
421.2 K	0.0009516 kPa and 0.0009609 kPa

Details	molar enthalpy [kcal/mol]
[2]	31.1

O=C(O)C1c2ccccc2Oc2ccccc21 [9H-xanthene-9-carboxylic acid]
[1]
Details	vapor or sublimation pressure
383.08 K	0.000119 kPa and 0.0001121 kPa and 0.0001132 kPa
385.15 K	0.0001477 kPa and 0.0001432 kPa and 0.0001353 kPa
387.25 K	0.0001726 kPa and 0.0001686 kPa and 0.0001619 kPa
389.12 K	0.0002124 kPa and 0.0002049 kPa and 0.0002165 kPa
391.13 K	0.0002584 kPa and 0.0002449 kPa
393.14 K	0.0003154 kPa and 0.0003062 kPa
395.13 K	0.0003811 kPa and 0.0003776 kPa and 0.0003653 kPa
397.11 K	0.0004814 kPa and 0.0004632 kPa
399.14 K	0.0005597 kPa and 0.0005447 kPa and 0.0005518 kPa
401.13 K	0.0006834 kPa and 0.0006937 kPa and 0.0006737 kPa
403.12 K	0.0008362 kPa and 0.0008293 kPa and 0.0007816 kPa
405.15 K	0.0009639 kPa and 0.0009409 kPa

Details	molar enthalpy [kcal/mol]
[2]	30

— the NIST ThermoML archive (doi:10.1016/j.jct.2012.03.017)
